How the values were obtained:
MCF-7 cells = test: MTT cell proliferation assay, MCF-7; assay type: cell-based, human; settings: Homo sapiens, MCF7; MTT, 24 hours treatment, curve fitting; read-out: IC50, proliferation of MCF-7 cells
Procedure: FIG. 8. Effects of HCB on the proliferation of MCF-7 cells. MCF-7 cells were seeded in 96 well plates and treated with drugs at varied concentration for 24 hours. MTT assay was performed to determine remaining viable cells in each well. Results are represented as mean±S.D. (n=7). IC50 was determined by curve fitting.
3-(4,5-Dimethylthiazol-2-yl)-2,5-diphenyltetrazolium Bromide (MTT) Cell Proliferation Assay. To cells grown in 96-well-tissue culture plate, 20 μl/well of MTT solution (5 mg/ml in PBS) was added. After 1-2 hours incubation at 37° C., the plate was centrifuged. Supernatant was discarded and 100 μl DMSO was added to dissolve water insoluble formazan, and the absorbance was read at 540 nm with a plate reader.

SARS-CoV-2 [1] = test: microbe, parasite or virus in culture; assay type: cell-based
in vitro = settings: African green monkey, Vero E6 cells
[2] = tested on: 293T human embryonic kidney cells over-expressing the ACE2 receptor; test: Cytotoxicity assay in 293T/ACE2 cells; settings: 293T/ACE2 cytotoxicity
[3] = Cytotoxicity assay in 293T/ACE2 cells; settings: human, HEK293T/17 cells expressing human ACE2
Vero cells = test: Cytotoxicity assay in Vero cells
SARS-CoV-2 [4] = test: SARS-CoV-2 antiviral assay in Vero cells; assay type: cell-based; settings: Severe acute respiratory syndrome coronavirus 2, Vero

Q: With `N=C(NCC12C3C4C5C3C1C5C42)NC(=N)NCC12C3C4C5C3C1C5C42` (centres unmarked) [DCB, Dicubanomethyl Biguanide] as the compound, how does the IC50 (MCF-7 cells) read?
A: The IC50 was 22100 ± 1700 nM.

Q: With `CC(F)(F)CCCCNC(=N)NC(=N)NCC12C3C4C5C3C1C5C42` (centres unmarked) [HCB-F2, N1-5′,5′-difluorohexyl-N5-(cuban-1-yl)methyl-biguanide] as the compound, how does the IC50 (MCF-7 cells) read?
A: The IC50 was 13500 nM.

Q: For `N=C(NCCCCCC(F)(F)F)NC(=N)NCC12C3C4C5C3C1C5C42` (centres unmarked) [HCB-F3, N1-6′,6′,6′-trifluorohexyl-N5-(cuban-1′-yl)methyl-biguanide], which IC50 (MCF-7 cells) is on record?
A: The IC50 was 13700 nM.

Q: What does the source list for `CCC(CC)COC(=O)[C@H](C)N[P@](=O)(OC[C@H]1O[C@@](C#N)(c2ccc3c(N)ncnn23)[C@H](O)[C@@H]1O)Oc1ccccc1` [remdesivir]?
A: IC50 (SARS-CoV-2 [1]; Severe acute respiratory syndrome coronavirus 2, 293T/ACE2, read-out: antiviral IC50): 20 nM; IC90 (SARS-CoV-2 [1]; Severe acute respiratory syndrome coronavirus 2, 293T/ACE2, read-out: antiviral IC90): 22 nM; CC50 at 48 h (in vitro): > 20000 nM; CC10 [2]: > 100 nM; CC50 [3]: > 100 nM; CC10 (Vero cells): > 286 nM; IC50 (SARS-CoV-2 [4]; read-out: antiviral IC50): 1040 nM; IC90 (SARS-CoV-2 [4]; read-out: antiviral IC90): 2250 nM
